Results taken from patent publication US6319929A, “Suksdorfin analogs, compositions thereof, and methods for making and using thereof” (priority 1998, dated 2001).
Where two headings read alike, the source gives them in different places.

Assays:
[1] = tested on: HIV-1 replication in H9 cells; assay: HIV-1 replication inhibition in acutely infected H9 lymphocytes (p24 antigen ELISA); format: cell-based, HIV-1 (IIIB strain)
Description: (§1) HIV inhibition assay. The HIV inhibition was measured as described herein. Briefly, H9 cells, a T cell line, (3.5×10^6 cells/ml) were incubated in the presence or absence of HIV-1 (IIIB strain, 0.01-0.1 TCID50 /cell) for 1 hour at 37° C. Cells were washed thoroughly and resuspended at a final concentration of 2×10^5 cells/ml in the presence or absence of compound. After incubation for 3-4 days at 37° C., the cell density of uninfected cultures was determined by cell count to assess toxicity of the drug. An aliquot of each cell-free supernatant was assayed by p24 antigen ELISA to quantitate the amount of HIV-1 present in the infected cultures. Test compounds were considered to be active at a particular concentration if p24 antigen levels were less than 70% of infected, untreated controls and were nontoxic to uninfected H9 cells.
(§2) HIV Growth Inhibition Assay: The T cell line, H9, and the promonocytic cell line, U937, were maintained separately in continuous culture with complete medium (RPMI 1640 and […] fetal calf serum (FCS) at 5% CO2 and 37° C. Cell lines were used in experiments only when in log phase of growth; whereas, uninfected peripheral blood mononuclear cells (PBMCs) were first stimulated with PHA (1 μg/ml) for 3 days. All cell targets were incubated with HIV-1 (IIIB isolate, TCID50 10 ^4 IU/mi, at a multiplicity of infection of 0.1-0.01 IU/cell) for 1 hour at 37° C. and 5% CO2. The cell lines and PBMCs were washed thoroughly to remove unabsorbed virions and resuspended at 4×10^5 cells/ml in complete medium or complete medium with 10% v/v interleukin […] IL-2, respectively. Aliquots ( ml) were placed in wells of 24-well culture plates containing an equal volume of test compound (diluted in the appropriate culture medium). After incubation for 4 days at 37° C., cell density of uninfected cultures was determined by counting cells in a Coulter counter to assess toxicity of the test compound. A p24 antigen ELISA assay was used to determine the level of virus released in the medium of the HIV-infected cultures. The p24 antigen assay uses a HIV-1 anti-p24 specific monoclonal antibody as the capture antibody coated-on 96-well plates. Following a sample incubation period, rabbit serum containing antibodies for HIV-1 p24 is used to tag any p24 "captured" onto the microtiter well surface. Peroxidase conjugated goat anti-rabbit serum is then used to tag HIV-1 p24 specific rabbit antibodies which have complexed with captured p24. […] The cut-off for the p24 ELISA assay is 12. pg/ml. P24 in the culture medium was quantitated against a standard curve containing known amounts of p24. The effective (EC50) and inhibitory (IC50) concentrations (for anti-HIV activity and cytotoxicity, respectively) were determined graphically. Both the EC50 and IC50 values were calculated by plotting drug concentration versus percent inhibition, and then identifying a 50% inhibition value from the graph.

uninfected H9 cells = assay: Toxicity to uninfected H9 cells (cell growth); format: cell-based; settings: Homo sapiens
Description: as §1, §2

[2] = tested on: chronically HIV-1 infected ACH-2 cells; assay: Virus expression from chronically HIV-1 infected T cell line ACH-2 (p24 antigen ELISA); format: cell-based; settings: ACH-2 cells; 4320 min
Description: Effects of suksdorfin analogs on Chronically HIV-1 infected cells. The experimental design is as follows: The phorbol ester, PMA (10^-8 M) and various concentrations of suksdorfin were either added or not added to both the chronically HIV-1 infected T cell line (ACH-2) and to the chronically HIV-1 infected monocytic cell line (U1). Cell-free supernatant was collected 72 hours post culture for p24 antigen ELISA.
Results (Table 11) from adding compound 16 to the chronically HIV-infected T cell line, ACH-2, according to methods in above examples. ACH-2 are a chronically HIV-1 infected T cell line. It was derived from A3.01 cells which is a subclone of the CEM cell line. The data below indicates the following points:
Chronically HIV-1 infected cell lines. HIV-1 chronically infected T cell line, ACH-2^12, and HIV-1 chronically infected promonocytic cell line, U1 13, were continuously maintained in RPMI 1640 with 10% fetal calf serum (FCS). For experiments, the cell lines were only used in the […] of growth. Cells (0.5×10^6 cells/well) and either various concentrations of suksdorfin or medium alone were added to 24-well plates in the presence or absence of PMA (10^-8 M). After 72 hours at 37° C. and 5% CO2, an aliquot of the cell-free supernatants were collected and analyzed for p24 antigen by ELISA (see below for details of p24 antigen ELISA).

[3] = Human immunodeficiency virus 1, H9, Table 3, H9 lymphocytes, read-out: EC50
[4] = H9, Table 3, H9 lymphocytes, read-out: IC50
[5] = H9, Table 14, concentration which inhibits uninfected cell growth by 50%, read-out: IC50 (μM)^a
[6] = H9, concentration which inhibits uninfected cell growth by 50%, read-out: IC50
[7] = Human immunodeficiency virus 1, H9, acutely infected H9 cells, concentration which inhibits viral replication by 50%, Inactive = No suppression of HIV-1 replication in H9 cells, read-out: EC50
[8] = Human immunodeficiency virus 1, Table 14, concentration which inhibits viral replication by 50%, Inactive = No suppression of HIV-1 replication in H9 cells, read-out: IC50 (μM)^b
[9] = IC50 for cell growth inhibition divided by EC50 for HIV inhibition, H9
[10] = H9, Table 17, uninfected H9 cell growth, read-out: IC50
[11] = Human immunodeficiency virus 1, H9, Table 17, acutely infected H9 lymphocytes, read-out: EC50
[12] = Table 14, concentration which inhibits viral replication by 50%, Inactive = No suppression of HIV-1 replication in H9 cells
[13] = acutely infected H9 cells, concentration which inhibits viral replication by 50%, Inactive = No suppression of HIV-1 replication in H9 cells

CC(=O)OC1Cc2c(ccc3ccc(=O)oc23)OC1(C)C (racemic) [Compound 25]
EC50 [1, 3]: > 69 µM

CC(C)CC(=O)OC1Cc2c(ccc3ccc(=O)oc23)OC1(C)C (racemic) [Compound 26]
EC50 [1, 3]: > 12 µM

CC(=O)O[C@@H]1c2c(ccc3ccc(=O)oc23)OC(C)(C)[C@@H]1OC(C)=O (relative stereo) [Compound 12]
EC50 [1, 3]: > 289 µM

CC(C)CC(=O)O[C@@H]1c2c(ccc3ccc(=O)oc23)OC(C)(C)[C@@H]1OC(=O)CC(C)C (relative stereo) [Compound 13]
EC50 ([1]; Human immunodeficiency virus 1, H9, Table 3, H9 lymphocytes): > 232 µM

CC(=O)O[C@@H]1[C@@H](OC(=O)c2cccc(Cl)c2)c2c(ccc3ccc(=O)oc23)OC1(C)C (relative stereo) [Compound 27]
EC50 [1, 3]: > 45 µM

CC(C)CC(=O)O[C@@H]1[C@@H](OC(=O)c2cccc(Cl)c2)c2c(ccc3ccc(=O)oc23)OC1(C)C (relative stereo) [Compound 28]
IC50 (uninfected H9 cells; [4]): 10 µM | EC50 [1, 3]: 8.3 µM | Therapeutic Index ([1]; Table 3, H9 lymphocytes): 1.2

CO[C@@H]1[C@@H](OC(=O)c2cccc(Cl)c2)c2c(ccc3ccc(=O)oc23)OC1(C)C (relative stereo) [Compound 29]
IC50 (uninfected H9 cells; [4]): > 48 µM | EC50 [1, 3]: 241 µM | Therapeutic Index ([1]; Table 3, H9 lymphocytes): > 0.2

CC1(C)Oc2ccc3ccc(=O)oc3c2[C@H](OC(=O)c2cccc(Cl)c2)[C@H]1OCc1ccccc1 (relative stereo) [Compound 30]
EC50 [1, 3]: 6.1 µM

CCC(C)C(=O)OC1C(O)c2c(ccc3ccc(=O)oc23)OC1(C)C (centres unmarked) [8 and 9]
EC50 [1, 3]: > 57.8 µM

CCC(C)C(=O)OC1c2c(ccc3ccc(=O)oc23)OC(C)(C)C1O (centres unmarked) [10 and 11]
EC50 [1, 3]: > 57.8 µM

CCC(C)C(=O)OC1c2c(ccc3ccc(=O)oc23)OC(C)(C)C1OC(=O)C(C)CC (centres unmarked) [14 and 15]
EC50 [1, 3]: 7 µM

COc1c2ccoc2cc2oc(=O)ccc12 [Bergapten, bergapten, reference compound]
IC50 (uninfected H9 cells; [5]): > 92.6 µM | IC50 (uninfected H9 cells; [6]): > 92.6 µM | EC50 [1, 7]: 30.1 µM | IC50 [1, 8]: 30.1 µM | Therapeutic Index [1, 9]: > 3.1 | Therapeutic Index ([1]; Table 14): > 3.1

C/C=C(/C)C(=O)OC(C)(C)[C@@H]1Cc2c(ccc3ccc(=O)oc23)O1 [Columbianadin, columbianadin, reference compound]
IC50 (uninfected H9 cells; [5]): > 6.1 µM | IC50 (uninfected H9 cells; [6]): > 6.1 µM | EC50 [1, 7]: 4.6 µM | IC50 [1, 8]: 4.6 µM | Therapeutic Index [1, 9]: > 1.3 | Therapeutic Index ([1]; Table 14): > 1.3

CC1(C)Oc2ccc3ccc(=O)oc3c2[C@H](OC(=O)[C@@]23CC[C@@](C)(C(=O)O2)C3(C)C)[C@@H]1OC(=O)[C@@]12CC[C@@](C)(C(=O)O1)C2(C)C [Compound 17, 3',4'-Di-O-(-)-Camphanoyl-(-)-cis-Khellactone]
IC50 (uninfected H9 cells; [4]): 1700 µM | IC50 (uninfected H9 cells; [10]): 1700 µM | EC50 [1, 3]: 51 µM | EC50 [1, 11]: 51 µM | Therapeutic Index [1, 9]: > 1.3 | Therapeutic Index ([1]; Table 3, H9 lymphocytes): > 33.3 | Therapeutic Index ([1]; Table 17, H9): > 33.3 | anti-HIV activity in H9 cells (in words) ([1]; acutely infected H9 cells): much less activity than that of compound 16 | anti-HIV activity in H9 cells (in words) ([1]; acutely infected H9 cells, listed as 3): much less anti-HIV activity than 2

CC1(C)Oc2ccc3ccc(=O)oc3c2[C@H](OC(=O)[C@@]23CC[C@@](C)(C(=O)O2)C3(C)C)[C@H]1OC(=O)[C@@]12CC[C@@](C)(C(=O)O1)C2(C)C [Compound 44, 31'4'-Di-O-(-)-Camphanoyl-(-)-trans-Khellactone]
Therapeutic Index ([1]; Table 3, H9 lymphocytes): > 1 | Therapeutic Index ([1]; Table 14): 1.3 | Therapeutic Index ([1]; Table 17, H9): > 1 | anti-HIV activity in H9 cells (in words) ([1]; acutely infected H9 cells): much less activity than that of compound 16 | anti-HIV activity in H9 cells (in words) ([1]; acutely infected H9 cells, listed as 4): much less anti-HIV activity than 2

CC1(C)Oc2ccc3ccc(=O)oc3c2[C@@H](OC(=O)[C@@]23CC[C@@](C)(C(=O)O2)C3(C)C)[C@@H]1OC(=O)[C@@]12CC[C@@](C)(C(=O)O1)C2(C)C [Compound 45, 3', 4'-Di-O-(-)-Camphanoyl-(+)-trans-Khellactone]
IC50 (uninfected H9 cells; [4]): < 32 µM | IC50 (uninfected H9 cells; [10]): > 32 µM | EC50 [1, 3]: 32 µM | EC50 [1, 11]: 32 µM | Therapeutic Index ([1]; Table 3, H9 lymphocytes): > 1 | Therapeutic Index ([1]; Table 17, H9): > 1 | anti-HIV activity in H9 cells (in words) ([1]; acutely infected H9 cells): much less activity than that of compound 16 | anti-HIV activity in H9 cells (in words) ([1]; acutely infected H9 cells, listed as 5): much less anti-HIV activity than 2

COc1cc2cc(Oc3ccc4ccc(=O)oc4c3)c(=O)oc2cc1O [Daphnoretin, daphnoretin, reference compound]
IC50 (μM)^b [1, 12]: Inactive | anti-HIV activity in H9 cells (in words) ([1]; acutely infected H9 cells): no activity | EC50 [1, 13]: Inactive

CC(C)=CCOc1c2occc2cc2ccc(=O)oc12 [Imperatorin, imperatorin, reference compound]
IC50 (uninfected H9 cells; H9, concentration which inhibits uninfected cell growth by 50%): > 74.1 µM | IC50 (uninfected H9 cells; H9, read-out: IC50 (μM)^a, Table 14, concentration which inhibits uninfected cell growth by 50%): > 74.1 µM | EC50 ([1]; Human immunodeficiency virus 1, H9, acutely infected H9 cells, concentration which inhibits viral replication by 50%, Inactive = No suppression of HIV-1 replication in H9 cells): 11.1 µM | IC50 ([1]; Human immunodeficiency virus 1, H9, read-out: IC50 (μM)^b): 11.1 µM | Therapeutic Index [1, 9]: > 6.7 | Therapeutic Index ([1]; Table 14): > 6.7

CC(C)=CCOc1c2ccoc2cc2oc(=O)ccc12 [Isoimperatorin, isoimperatorin, reference compound]
IC50 (uninfected H9 cells; [5]): > 185 µM | IC50 (uninfected H9 cells; [6]): > 185 µM | EC50 [1, 7]: 40.7 µM | IC50 [1, 8]: 40.7 µM | Therapeutic Index [1, 9]: > 4.6 | Therapeutic Index ([1]; Table 14): > 4.6

CC(C)(O)[C@H]1Cc2cc3ccc(=O)oc3cc2O1 [Nodakenetin, nodakenetin, reference compound]
IC50 (μM)^b [1, 12]: Inactive | EC50 [1, 13]: Inactive

CC(C)(O[C@@H]1O[C@H](CO)[C@@H](O)[C@H](O)[C@H]1O)[C@H]1Cc2cc3ccc(=O)oc3cc2O1 [Nodakenin, nodakenin, reference compound]
IC50 (μM)^b [1, 12]: Inactive | EC50 [1, 13]: Inactive

CCCCCCCCCCCCCC(=O)O[C@@H]1[C@@H](C)[C@@]2(O)[C@@H](C=C(CO)C[C@]3(O)C(=O)C(C)=C[C@@H]23)[C@@H]2C(C)(C)[C@]12OC(C)=O [PMA, phorbol 12-myristate 13-acetate, reference compound]
induction of virus replication compared to medium alone [2]: 27 fold

acetylnodakenin [reference compound]
IC50 (μM)^b [1, 12]: Inactive | EC50 [1, 13]: Inactive
